Test results reported in the NIST ThermoML archive (doi:10.1021/je700521t).

Assay: xn = mol fraction of the nth substance listed
Conditions: 101 kPa, Liquid

CCCCn1cc[n+](C)c1.[O-][Cl+3]([O-])([O-])[O-] [1-butyl-3-methylimidazolium perchlorate] + CCO
mass density [kg/m3], Vibrating tube method
Conditions | x2 = 0.1 | x2 = 0.165 | x2 = 0.291 | x2 = 0.401 | x2 = 0.479 | x2 = 0.592 | x2 = 0.637 | x2 = 0.79 | x2 = 0.86
283.15 K | 1249.3 | 1239.4 | 1216.6 | 1192 | 1173.6 | – | – | – | –
288.15 K | 1245.7 | 1235.7 | 1212.8 | 1188.3 | 1169.8 | – | – | – | –
293.15 K | 1242.1 | 1231.9 | 1208.9 | 1184.6 | 1166.1 | 1129.6 | 1110.4 | 1022.6 | 960.5
298.15 K | 1238.6 | 1228 | 1205 | 1180.9 | 1162.2 | 1125.8 | 1104.6 | 1018.7 | 956.7
303.15 K | 1235.1 | 1224.1 | 1199.8 | 1177.2 | 1158.3 | 1122 | 1102.7 | 1014.8 | 952.7
308.15 K | 1231.7 | 1220.3 | 1195.8 | 1173.6 | – | 1117.5 | 1100.6 | 1011 | 948.7
313.15 K | 1228.2 | 1216.2 | 1193.1 | 1169.9 | – | 1114.8 | 1096.7 | 1007 | 944.6
318.15 K | 1224.7 | 1211.2 | 1188.9 | – | – | – | – | – | –
323.15 K | 1221.3 | 1207.2 | 1184.7 | – | – | – | – | – | –
328.15 K | 1217.8 | 1201 | 1180.1 | – | – | – | – | – | –
333.15 K | 1214.4 | 1198.7 | 1175.2 | – | – | – | – | – | –
338.15 K | 1211 | 1195.4 | 1169.3 | – | – | – | – | – | –
343.15 K | 1207.5 | 1190.3 | 1159.4 | – | – | – | – | – | –

viscosity [mPa·s]
Conditions | x2 = 0.1 | x2 = 0.165 | x2 = 0.291 | x2 = 0.401 | x2 = 0.479 | x2 = 0.592 | x2 = 0.637 | x2 = 0.79 | x2 = 0.86
283.15 K | 255.52 | 181.83 | 87.42 | 50.26 | 35.48 | – | – | – | –
288.15 K | 188.52 | 136.86 | 68.04 | 40.89 | 29.17 | – | – | – | –
293.15 K | 142.2 | 105.92 | 54.9 | 33.49 | 24.41 | 12.98 | 11.66 | 5.38 | 4.96
298.15 K | 109.99 | 83.35 | 44.84 | 27.92 | 20.67 | 11.13 | 10.06 | 4.62 | 4.22
303.15 K | 86.43 | 66.48 | 36.75 | 23.38 | 17.56 | 9.6 | 8.71 | 4.03 | 3.59
308.15 K | 69.74 | 54.25 | 30.63 | 20.06 | – | 8.48 | 7.52 | 3.74 | 3.16
313.15 K | 56.98 | 44.76 | 26.13 | 17.38 | – | 7.43 | 6.66 | 3.46 | 2.8
318.15 K | 46.98 | 37.2 | 22.14 | – | – | – | – | – | –
323.15 K | 39.45 | 31.56 | 19.51 | – | – | – | – | – | –
328.15 K | 33.69 | 27.02 | 17.16 | – | – | – | – | – | –
333.15 K | 28.86 | 23.5 | 15.43 | – | – | – | – | – | –
338.15 K | 24.94 | 20.45 | 13.79 | – | – | – | – | – | –
343.15 K | 21.69 | 18.12 | – | – | – | – | – | – | –

CCCCCCCC[n+]1ccn(C)c1.F[B-](F)(F)F [1-methyl-3-octylimidazolium tetrafluoroborate] + CCO
Conditions | mass density [kg/m3] | viscosity [mPa·s]
283.15 K, x2 = 0.081 | 1122.9 | 718.47
283.15 K, x2 = 0.161 | 1118 | 492.73
283.15 K, x2 = 0.315 | 1098.7 | 167.49
283.15 K, x2 = 0.511 | 1064.7 | 51.57
283.15 K, x2 = 0.612 | 1039.7 | 27.12
283.15 K, x2 = 0.753 | 991.3 | 12.45
288.15 K, x2 = 0.081 | 1119.4 | 507.18
288.15 K, x2 = 0.161 | 1114.5 | 354.89
288.15 K, x2 = 0.315 | 1095.2 | 127.69
288.15 K, x2 = 0.511 | 1061.3 | 41.43
288.15 K, x2 = 0.612 | 1036 | 22.05
288.15 K, x2 = 0.753 | 987.5 | 10.36
293.15 K, x2 = 0.081 | 1115.9 | 366.59
293.15 K, x2 = 0.161 | 1111 | 261.54
293.15 K, x2 = 0.315 | 1091.8 | 98.92
293.15 K, x2 = 0.511 | 1057.8 | 35.28
293.15 K, x2 = 0.612 | 1032.2 | 18.24
293.15 K, x2 = 0.753 | 983.6 | 8.79
298.15 K, x2 = 0.081 | 1112.4 | 268.93
298.15 K, x2 = 0.161 | 1107.5 | 194.74
298.15 K, x2 = 0.315 | 1088.3 | 78.63
298.15 K, x2 = 0.511 | 1054.2 | 28.87
298.15 K, x2 = 0.612 | 1028.4 | 15.35
298.15 K, x2 = 0.753 | 979.7 | 7.53
303.15 K, x2 = 0.081 | 1108.9 | 203.35
303.15 K, x2 = 0.161 | 1104 | 150.36
303.15 K, x2 = 0.315 | 1084.8 | 63.33
303.15 K, x2 = 0.511 | 1050.6 | 23.94
303.15 K, x2 = 0.612 | 1024.7 | 12.98
303.15 K, x2 = 0.753 | 975.7 | 6.51
308.15 K, x2 = 0.081 | 1105.5 | 156.29
308.15 K, x2 = 0.161 | 1100.7 | 117.36
308.15 K, x2 = 0.315 | 1081.3 | 51.59
308.15 K, x2 = 0.511 | 1046.9 | 20.13
308.15 K, x2 = 0.612 | 1020.9 | 11.16
308.15 K, x2 = 0.753 | 971.8 | 5.66
313.15 K, x2 = 0.081 | 1102.2 | 123.27
313.15 K, x2 = 0.161 | 1097.3 | 93.2
313.15 K, x2 = 0.315 | 1077.8 | 42.48
313.15 K, x2 = 0.511 | 1043.2 | 17.09
313.15 K, x2 = 0.612 | 1017.2 | 9.61
313.15 K, x2 = 0.753 | 968 | 4.96
318.15 K, x2 = 0.081 | 1098.8 | 97.69
318.15 K, x2 = 0.161 | 1093.9 | 75.37
318.15 K, x2 = 0.315 | 1074.3 | 35.84
318.15 K, x2 = 0.511 | 1039.3 | 14.67
318.15 K, x2 = 0.612 | 1013.4 | 8.39
318.15 K, x2 = 0.753 | 964.1 | 4.38
323.15 K, x2 = 0.081 | 1095.4 | 79.43
323.15 K, x2 = 0.161 | 1090.5 | 61.66
323.15 K, x2 = 0.315 | 1070.9 | 30.38
323.15 K, x2 = 0.511 | 1034.9 | 12.72
323.15 K, x2 = 0.612 | 1009.7 | 7.39
323.15 K, x2 = 0.753 | 960.2 | 3.89
328.15 K, x2 = 0.081 | 1092.1 | 65.03
328.15 K, x2 = 0.161 | 1087.1 | 51.12
328.15 K, x2 = 0.315 | 1067.4 | 26.04
328.15 K, x2 = 0.511 | 1030.3 | 11.1
328.15 K, x2 = 0.612 | 1005.9 | 6.55
328.15 K, x2 = 0.753 | 956.4 | 3.5
333.15 K, x2 = 0.081 | 1088.7 | 54.15
333.15 K, x2 = 0.161 | 1083.7 | 42.99
333.15 K, x2 = 0.315 | 1064 | 22.54
333.15 K, x2 = 0.511 | 1028.7 | 9.77
333.15 K, x2 = 0.612 | 1002.2 | 5.8
333.15 K, x2 = 0.753 | 952.5 | 3.17
338.15 K, x2 = 0.081 | 1085.4 | 45.46
338.15 K, x2 = 0.161 | 1080.3 | 36.47
338.15 K, x2 = 0.315 | 1060.5 | 19.73
338.15 K, x2 = 0.511 | 1025.2 | 8.65
338.15 K, x2 = 0.612 | 998.5 | 5.18
338.15 K, x2 = 0.753 | 948.6 | 2.89
343.15 K, x2 = 0.081 | 1082.1 | 39.03
343.15 K, x2 = 0.161 | 1077 | 31.51
343.15 K, x2 = 0.315 | 1057.1 | 17.42
343.15 K, x2 = 0.511 | 1021.3 | 7.74
343.15 K, x2 = 0.612 | 994.7 | 4.7
343.15 K, x2 = 0.753 | 944.7 | 2.65
